Measured values reported in US9266872B2, “2-hydroxyarylamide derivative or pharmaceutically acceptable salt thereof, preparation method thereof, and pharmaceutical composition for preventing or treating cancer containing same as active ingredient” (KOREA RESEARCH INSTITUTE OF BIOSCIENCE AND BIOTECHNOLOGY, priority 2011, dated 2016).

What was measured:
[1] = molecular target: T1, TMPRSS4 serine protease (Homo sapiens, UniProt Q9NRS4); experiment: Inhibitory effect on TMPRSS4 serine protease activity using peptide substrate; format: biochemical; conditions: kallikrein peptide substrate 100 μM, DMSO negative control; for Intracellular protease activity Inhibition % 10 uM / inhibition at 10 µM: 10 uM compound; for inhibition at 10 µM: read-out: Intracellular protease activity Inhibition % 10 uM; for inhibition at 30 µM: 30 uM compound, read-out: Intracellular protease activity Inhibition % 30 uM; for inhibition at 100 µM: 100 uM compound, read-out: Intracellular protease activity Inhibition % 100 uM
T1 construct: TMPRSS4 serine protease domain (205th Val˜437th Leu) was cloned in pET21b/NdeI-XhoI; inferred from pET21b XhoI cloning and Ni-NTA purification) (C); made in house; host or cells: E. coli BL21 (DE3)
T1 sequence (Q9NRS4 205-437): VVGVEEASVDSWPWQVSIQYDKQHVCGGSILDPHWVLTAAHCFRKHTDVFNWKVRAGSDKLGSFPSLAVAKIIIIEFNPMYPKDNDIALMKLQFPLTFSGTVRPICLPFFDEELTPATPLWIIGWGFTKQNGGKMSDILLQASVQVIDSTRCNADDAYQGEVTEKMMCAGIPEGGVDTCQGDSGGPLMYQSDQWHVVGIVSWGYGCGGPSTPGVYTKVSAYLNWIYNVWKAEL
Description: TMPRSS4 serine protease domain (205th Val˜437th Leu) was cloned in pET21b/NdeI-XhoI, which was introduced in E. coli BL21 (DE3). At this time, FlagX2-enterokinase cleavage site ([…]; total 15 amino acids) was inserted in N-terminal of TMPRSS4 serine protease domain as shown in FIG. 1. The forward and reverse primers for PCR used for the cloning were presented by SEQ. ID. NO: 1 and NO: 2.
The cells were cultured in 10 ml of LB containing ampicillin at 37° C. overnight. IL of LB+ampicillin was added thereto, followed by further culture until OD reached 0.6˜0.8. 0.1 mM IPTG was added thereto, followed by further culture for 16 hours. Cell pellet was obtained, purified by Ni-NTA (Qiagen), and dialyzed. TMPRSS4 serine protease (pro-form) labeled with 2 mg of 2Xflag-enterokinase cleavage site was conjugated to Ni-NTA resin (4°, overnight). Enterokinase (NEB) was treated thereto at the concentration of 0.0002%/w/w at room temperature for 5 hours. The sample was washed, eluted with 50 mM imidazole in 20 mM of sodium phosphate buffer, and then dialyzed.
The protein activity was evaluated by measuring fluorescence shown during hydrolysis of the peptide. […] Reaction was induced after adding 100 μM of the peptide substrate into reaction buffer (50 mM Tris-HCl (pH 8.0), 10 mM CaCl2, 1 μM ZnCl2). Then, fluorescence was measured at 5 minutes interval (excitation 385 nm, emission 455 nm).
Then, fluorescence (excitation 385 nm/emission 455 nm) was measured at 5 minutes interval for 150 minutes. […] Dimethylsulfoxide (DMSO) was used as the negative control.

[2] = tested on: TMPRSS4 over-expressing colorectal cancer cell line SW480; experiment: Inhibitory effect on infiltration of cancer cells over-expressing TMPRSS4 (matrigel trans-well); format: cell-based; conditions: Homo sapiens, SW480 over-expressing TMPRSS4, 48 hours, read-out: Inhibition rate of target-expressing colorectal cancer cell activity (%, 0.1~2 uM)
Description: The cells were distributed in a 6-well plate at the density of 3×10^5 cells/well, followed by transfection. 48 hours later, the medium was replaced with a selection medium (800 μg/ml G418 medium). G418-resistant clone was separated, followed by culture for 2 weeks, during which selection was performed.
The cancer cell line constructed in step 1 was distributed in a 24-well trans-well plate (8 μm pore size; Costar, USA) whose porous membrane was coated with 100 μl of matrigel (BD Biosciences, USA) diluted with serum-free medium at the concentration of 250 μg/ml, which stood at room temperature for 1 hour for solidification. Lower chamber of the trans-well plate was coated with 100 μl of collagen type I (Sigma) at the concentration of 20 μg/ml. […] While culturing the cells in a 37, 5% CO2 incubator for 48 hours, cell migration from the upper chamber to lower chamber was allowed. […] The excessive crystal violet solution was washed away with distilled water. The migrated cell number was counted from 5 randomly selected areas (×200). The experiment was repeated at least twice under the same condition, and the representative result was presented.
The inhibitory effect of each compound on the infiltration of TMPRSS4 over-expressing colorectal cancer cell line SW480 was calculated by Mathematical Formula 1, which presents the number of infiltrated cells with % by the number of infiltrated cells in the negative control treated with DMSO. Infiltration Inhibition Rate (%)=100−Infiltrated cell number with the treatment of each compound/Infiltrated cell number with the treatment of DMSO×100 [Mathematical Formula 1]

SMILES | inhibition at 10 µM [1] [%] | inhibition at 30 µM [1] [%] | inhibition at 100 µM [1] [%] | also measured
Cc1c(C(F)(F)F)cc(NC(=O)c2cc(Cl)ccc2O)cc1C(F)(F)F [Example 33, 5-chloro-2-hydroxy-N-(4-methyl-3,5-bis(trifluoromethyl)phenyl)benzamide] | 51 to 100 | 94 | – | Intracellular protease activity Inhibition % 10 uM [1]: 51%; inhibition at 0.1 µM ([2]; 0.1 uM): 43%
COc1cc(NC(=O)c2cc(Cl)ccc2O)cc(C(F)(F)F)c1 [Example 6, 5-chloro-2-hydroxy-N-(3-methoxy-5-(trifluoromethyl)phenyl)benzamide] | 51 to 100 | 88 | 99 | Intracellular protease activity Inhibition % 10 uM [1]: 67%; inhibition at 0.8 µM ([2]; 0.8 uM): 49%
N#Cc1ccc(NC(=O)c2cc(Cl)ccc2O)c(Cl)c1 [Example 27, 5-chloro-N-(2-chloro-4-cyano-phenyl)-2-hydroxy-benzamide] | – | 92 | 100 | inhibition at 2 µM ([2]; 2 uM): 54%
O=C(Nc1cnc2ccccc2c1)c1cc(Cl)ccc1O [Example 25, 5-chloro-2-hydroxy-N-quinoline-3-yl-benzamide] | – | 8 | 75 | inhibition at 25 µM ([2]; 25 uM): 51%
O=C(Nc1cc(C(F)(F)F)cc(C(F)(F)F)c1)c1ccc(C(F)(F)F)cc1O [Example 13, N-(3,5-bis(trifluoromethyl)phenyl)-4-(trifluoromethyl)-2-hydroxybenzamide] | 32 | 79 | – | –
O=C(Nc1ccc(Cl)cn1)c1cc(Cl)ccc1O [Example 42, 5-chloro-N-(5-chloropyridine-2-yl)-2-hydroxybenzamide] | – | 14 | 55 | –
N#Cc1ccc(O)c(C(=O)Nc2cc(C(F)(F)F)cc(C(F)(F)F)c2)c1 [Example 56, N-(3,5-bis(trifluoromethyl)phenyl)-5-cyano-2-hydroxybenzamide] | 15 | 53 | – | –
O=C(Nc1cc(Cl)c(Cl)c(Cl)c1)c1cc(Cl)ccc1O [Example 66, 5-chloro-2-hydroxy-N-(3,4,5-trichloro-phenyl)benzamide] | 6 | 23 | – | –
O=C(Nc1cc(C(F)(F)F)cc(C(F)(F)F)c1)c1cnc2ccccc2c1O [Example 68, N-(3,5-bis(trifluoromethyl)phenyl)-4-hydroxyquinoline-3-carboxamide] | 0 | 0 | – | –
O=C(Nc1cc(C(F)(F)F)cc(C(F)(F)F)c1Cl)c1cc(Cl)ccc1O [Example 29, 5-chloro-N-(2-chloro-3,5-bis-trifluoromethyl-phenyl)-2-hydroxy-benzamide] | 43 | 100 | – | –
O=C(Nc1cc(C(F)(F)F)cc(C(F)(F)F)c1)c1cccc(Cl)c1O [Example 26, N-(3,5-bis-trifluoromethyl-phenyl)-3-chloro-2-hydroxy-benzamide] | 51 to 100 | 93 | – | Intracellular protease activity Inhibition % 10 uM [1]: 61%
O=C(Nc1ccccn1)c1cc(Cl)ccc1O [Example 40, 5-chloro-2-hydroxy-N-(pyridine-2-yl)benzamide] | – | 0 | 11 | –
COc1ccc(O)c(C(=O)Nc2cc(C(F)(F)F)cc(C(F)(F)F)c2)c1 [Example 7, N-(3,5-bis(trifluoromethyl)phenyl)-2-hydroxy-5-methoxybenzamide] | 0 | 53 | – | –
O=C(Nc1ccnc(Cl)c1)c1cc(Cl)ccc1O [Example 47, 5-chloro-N-(2-chloropyridine-4-yl)-2-hydroxybenzamide] | – | 35 | 21 | –
O=C(Nc1cc(C(F)(F)F)ccc1F)c1cc(Cl)ccc1O [Example 21, 5-chloro-N-(2-fluoro-5-(trifluoromethyl)phenyl)-2-hydroxybenzamide] | – | 100 | – | –
O=C(Nc1c(F)c(F)nc(F)c1F)c1cc(Cl)ccc1O [Example 43, 5-chloro-2-hydroxy-N-(perfluoropyridine-4-yl)benzamide] | – | 31 | 51 | –
O=C(Nc1ccc(C(F)(F)F)c(C(F)(F)F)c1)c1cc(Cl)ccc1O [Example 62, N-(3,4-bis(trifluoromethyl)phenyl)-5-chloro-2-hydroxybenzamide] | 37 | 59 | – | –
O=C(Nc1ncccn1)c1cc(Cl)ccc1O [Example 49, 5-chloro-2-hydroxy-N-(pyrimidine-2-yl)benzamide] | – | 0 | 2 | –
O=C(Nc1cc(C(F)(F)F)ccc1F)c1cc(Cl)ccc1O [Example 64, 5-chloro-N-(2-fluoro-5-(trifluoromethyl)phenyl)-2-hydroxybenzamide] | – | – | 100 | Intracellular protease activity Inhibition % 10 uM [1]: 67%
O=C(Nc1cc(C(F)(F)F)cc(C(F)(F)F)c1)c1cc(Br)ccc1O [Example 9, N-(3,5-bis(trifluoromethyl)phenyl)-5-bromo-2-hydroxybenzamide] | 51 to 100 | 84 | – | Intracellular protease activity Inhibition % 10 uM [1]: 54%
Cc1cc(C)cc(NC(=O)c2cc(Cl)ccc2O)c1 [Example 60, 5-chloro-N-(3,5-dimethylphenyl)-2-hydroxybenzamide] | – | 44 | 56 | –
O=C(Nc1cc(C(F)(F)F)cc(C(F)(F)F)c1)c1cc(-c2ccc(F)cc2F)ccc1O [Example 30] | 5 | 31 | – | –
CC(=O)Oc1ccc(Cl)cc1C(=O)Nc1cc(C(F)(F)F)cc(C(F)(F)F)c1 [Example 57, 2-(3,5-bis(trifluoromethyl)phenylcarbamoyl)-4-chlorophenylacetate] | 0 | 4 | – | –
Cn1ccc(NC(=O)c2cc(Cl)ccc2O)n1 [Example 74, 5-chloro-2-hydroxy-N-(1-methyl-1H-pyrazol-3-yl)benzamide] | 14 | – | – | –
Cc1ccc(O)c(C(=O)Nc2cc(C(F)(F)F)cc(C(F)(F)F)c2)c1 [Example 3, N-(3,5-bis(trifluoromethyl)phenyl)-2-hydroxy-5-methylbenzamide] | 0 | 64 | – | –
O=C(Nc1cc(C(F)(F)F)cc(C(F)(F)F)c1)c1ccccc1O [Example 5, N-(3,5-bis(trifluoromethyl)phenyl)-2-hydroxybenzamide] | 0 | 20 | – | –
O=C(Nc1ccc(F)c(C(F)(F)F)c1)c1cc(Cl)ccc1O [Example 4, 5-chloro-N-(4-fluoro-3-(trifluoromethyl)phenyl)-2-hydroxybenzamide] | 51 to 100 | 86 | 98 | Intracellular protease activity Inhibition % 10 uM [1]: 64%
Cc1cnc(NC(=O)c2cc(Cl)ccc2O)s1 [Example 71, 5-chloro-2-hydroxy-N-(5-methylthiazole-2-yl)benzamide] | 51 to 100 | – | – | Intracellular protease activity Inhibition % 10 uM [1]: 66%
O=C(Nc1ccc(Cl)nc1)c1cc(Cl)ccc1O [Example 45, 5-chloro-N-(6-chloropyridine-3-yl)-2-hydroxybenzamide] | – | 6 | 39 | –
